Values of other authors, collected in PMC10675484, “Characterization and Pharmacokinetic Assessment of a New Berberine Formulation with Enhanced Absorption In Vitro and in Human Volunteers” (Pharmaceutics, 2023).
Where two headings read alike, the source gives them in different places.

What was measured:
[1] = not given; remark: listed apart in the source
[2] = parameters: method as in PMID 26851175; conditions: orally administered berberine
[3] = not given; remark: listed apart in the source
[4] = 500 mg berberine, within a 2 h period
[5] = 20 study participants, oral 400 mg of berberine
[6] = human volunteers, doses similar to the current study

COc1ccc2cc3[n+](cc2c1OC)CCc1cc2c(cc1-3)OCO2 [BCl]
Biopharmaceutical Classification System class: class III
Solubility in water: approximately 1.3 mg/mL

COc1ccc2c(c1OC)CN1CCc3cc4c(cc3C1=C2)OCO4 [DHB, dihydroberberine]
Glucose and insulin response ([1]; study participants, during the study period): no significant changes

COc1ccc2cc3[n+](cc2c1OC)CCc1cc2c(cc1-3)OCO2 [berberine, 2,3-methylenedioxy-9,10-dimethoxy-protoberberine]
Fraction metabolized in the enterocytes [2]: approx. 43.5%
AUC (berberine) [1, 4]: 42.3 ± 17.6 ng·h/mL
Cmax (berberine) [1, 4]: 0.4 ± 0.17 ng/mL
Cmax ([1]; 500 mg of berberine in 10 volunteers): 0.07 nM
Mean AUC0–∞ [1, 5]: ~9.2 ng·h/mL
Mean Cmax [1, 5]: approx. 0.4 ng/mL
Fraction of orally administered dose entering the systemic circulation ([1]; human pharmacokinetic studies): ≤ 5%
AUC (total berberine) [1, 6]: 1.217 ± 0.129 ng·h/mL
Cmax (total berberine) [1, 6]: 0.31688 ± 0.0266 ng/mL
Elimination half-life ([1]; oral administration in humans): 2.94 ± 0.14 h
Absolute bioavailability ([3]; oral administration in rats, ref 23, 24): < 1%
Absolute bioavailability ([3]; oral administration in rats, ref 24): 0.68%
Absorption rate in the gut ([3]; oral administration in rats, ref 25): approx. 33.6%
AUC in the liver relative to plasma ([3]; orally administered berberine 200 mg/kg): 10 fold
